{
  "source": "patent US8455553B2",
  "about": "“Methods and compositions for prevention and treatment of inflammatory disease, autoimmune disease and transplant rejection” (The Regents of the University of California, priority 2001, dated 2013)",
  "key": {"[1]": {"conditions": "cited from earlier work"}, "tyrosine kinase Tyk2": {"target": "tyrosine kinase Tyk2 (Homo sapiens, UniProt P29597)", "sequence (P29597 whole entry)": "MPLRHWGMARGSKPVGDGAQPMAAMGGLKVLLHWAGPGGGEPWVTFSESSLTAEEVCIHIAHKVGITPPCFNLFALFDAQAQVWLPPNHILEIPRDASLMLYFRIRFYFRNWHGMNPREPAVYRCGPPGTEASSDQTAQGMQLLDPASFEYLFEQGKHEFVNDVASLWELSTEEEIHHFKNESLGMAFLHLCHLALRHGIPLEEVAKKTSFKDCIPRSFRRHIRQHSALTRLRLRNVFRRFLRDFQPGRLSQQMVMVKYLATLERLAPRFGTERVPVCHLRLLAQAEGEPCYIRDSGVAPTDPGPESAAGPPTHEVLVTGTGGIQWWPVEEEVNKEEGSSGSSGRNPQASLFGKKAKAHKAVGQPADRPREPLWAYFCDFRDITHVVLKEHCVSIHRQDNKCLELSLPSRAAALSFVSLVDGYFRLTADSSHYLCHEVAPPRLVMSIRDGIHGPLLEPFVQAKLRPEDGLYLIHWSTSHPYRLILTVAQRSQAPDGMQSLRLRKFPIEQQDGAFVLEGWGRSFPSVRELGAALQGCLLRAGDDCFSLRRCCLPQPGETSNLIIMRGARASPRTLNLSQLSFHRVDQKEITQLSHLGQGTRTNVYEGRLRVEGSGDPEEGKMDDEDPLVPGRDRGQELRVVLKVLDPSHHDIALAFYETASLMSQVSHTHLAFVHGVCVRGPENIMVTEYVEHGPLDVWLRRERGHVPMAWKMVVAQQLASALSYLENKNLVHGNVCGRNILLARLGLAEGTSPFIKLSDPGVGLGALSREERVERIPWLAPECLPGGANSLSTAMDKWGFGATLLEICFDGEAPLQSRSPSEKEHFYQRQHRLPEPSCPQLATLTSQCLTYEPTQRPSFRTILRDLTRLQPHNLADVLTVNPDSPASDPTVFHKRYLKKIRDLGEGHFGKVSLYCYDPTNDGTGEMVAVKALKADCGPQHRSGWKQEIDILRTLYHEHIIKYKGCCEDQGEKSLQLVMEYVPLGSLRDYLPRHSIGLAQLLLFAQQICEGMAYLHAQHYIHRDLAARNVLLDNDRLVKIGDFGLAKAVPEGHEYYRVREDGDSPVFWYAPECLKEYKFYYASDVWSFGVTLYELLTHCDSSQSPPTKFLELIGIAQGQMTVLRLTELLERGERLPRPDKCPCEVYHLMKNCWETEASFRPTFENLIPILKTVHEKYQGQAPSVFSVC", "conditions": "Su, et al. (2000); cited from earlier work"}, "tyrosine kinase Syk": {"tested_on": "tyrosine kinase Syk", "conditions": "Geahlen, et al. (1989); cited from earlier work"}, "tyrosine kinase ZAP70": {"target": "T1, tyrosine kinase ZAP70 (Homo sapiens, UniProt P43403)", "T1 sequence (P43403 1-619)": "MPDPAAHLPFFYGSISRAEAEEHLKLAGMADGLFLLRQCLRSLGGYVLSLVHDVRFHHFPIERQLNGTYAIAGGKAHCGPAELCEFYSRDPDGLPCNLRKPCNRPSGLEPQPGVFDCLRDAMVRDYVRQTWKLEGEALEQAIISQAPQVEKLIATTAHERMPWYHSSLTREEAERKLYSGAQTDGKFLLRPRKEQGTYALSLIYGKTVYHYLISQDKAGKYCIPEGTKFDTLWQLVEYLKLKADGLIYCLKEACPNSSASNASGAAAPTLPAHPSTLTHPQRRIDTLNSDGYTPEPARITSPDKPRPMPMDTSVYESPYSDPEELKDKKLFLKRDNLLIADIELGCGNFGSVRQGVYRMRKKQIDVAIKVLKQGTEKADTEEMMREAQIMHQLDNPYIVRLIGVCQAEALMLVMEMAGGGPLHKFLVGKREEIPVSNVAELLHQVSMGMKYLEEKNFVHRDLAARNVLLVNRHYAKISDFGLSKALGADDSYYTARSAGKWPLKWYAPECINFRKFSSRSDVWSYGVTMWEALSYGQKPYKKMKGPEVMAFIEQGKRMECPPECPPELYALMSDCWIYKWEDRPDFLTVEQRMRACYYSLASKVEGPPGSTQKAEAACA", "conditions": "Geahlen, et al. (1989); cited from earlier work"}, "IL-6": {"tested_on": "IL-6", "assay": "Production of IL-6 in response to LPS in vitro", "assay_type": "cell-based"}, "Ovalbumin immunized mice": {"tested_on": "Ovalbumin immunized mice", "assay": "Ovalbumin asthma model, cell infiltration in bronchioalveolar lavage fluid", "assay_type": "in vivo", "conditions": "1 mg i.p. daily, FIG. 11", "method": "Mice (8 animals) were immunized by intraperitoneal (i.p.) injection of Ovalbumin after 2 weeks, The OA solution was administered into the nasal passage by inhalation without (4) or with (4) concurrent piceatannol regimen (1 mg i.p. daily)."}, "[2]": {"tested_on": "mice that had received piceatannol alone", "assay": "Toxicity of piceatannol alone in mice", "assay_type": "in vivo", "conditions": "for Lethality rate: no LPS", "method": "(§1) Endotoxic shock was induced by intraperitoneal injection of 1 μg LPS into laboratory mice in the presence of 20 mg D-galactosamine (D-Gal). This regimen leads to a 90-100% lethality rate by 9-12 hours post injection. The following data in Tables 1-3 reports the mortality rate over 28 days of observation. In one experiment, animals were treated intra peritoneally with piceatannol."}, "[3]": {"tested_on": "MBP-TCR+/STAT1- mice developing spontaneous paralysis", "assay": "Experimental autoimmune encephalomyelitis (EAE), model for multiple sclerosis", "assay_type": "in vivo", "excerpt": "Experimental autoimmune encephalomyelitis (EAE) represents a murine model for multiple sclerosis, a TH1 cells mediated demyelinating autoimmune disorder. In this modes, STAT1-deficient mice (Jackson Laboratories, Maine, USA) were crossed with mice carrying a tansgenic T cell receptor against Myelin Basis Protein (MBP) [Lafaille et al. (1994) Cell 78(3):399-408]. The resulting MBP-TCR^+/STAT1^− mice, when on an H2b/u or H2u/u background develop spontaneous paralysis. Typically, in this transgenic system, the disease progresses from early signs of hind leg paralysis (level 2) to the moribund stage of lethal paralysis (level 5) within 4-5 days.\nThree mice showing clear signs of hind leg paralysis were injected s.c. with 1 mg piceatannol every 48 hours (FIG. 10). Under this regimen these animals survived for 30 days, at which time piceatannol administration was stopped."}, "TNFα": {"tested_on": "TNFα", "assay": "Production of TNFα in response to LPS in vitro", "assay_type": "cell-based"}, "[4]": {"tested_on": "LPS induced gene expression (RANTES, MCP-1, ISG54, TNF)", "assay": "LPS induced gene expression (interferon regulated genes) in vitro", "assay_type": "cell-based"}, "[5]": {"tested_on": "endotoxic shock induced by intraperitoneal injection of 1 μg LPS in the presence of 20 mg D-galactosamine in laboratory mice", "assay": "Endotoxic shock, low dose model (1 μg LPS + D-Gal), lethality", "assay_type": "in vivo", "conditions": "for Mortality, percent dead: Table 3, Low Dose Model (1 μg LPS + D-Gal); for Mortality caused by septic shock: intraperitoneal administration prior to LPS challenge (Table 3)", "method": "as §1, with “piceatannol. […]” for “piceatannol.”"}, "[6]": {"tested_on": "septic shock induced by 1000 μg LPS intraperitoneally in mice", "assay": "Septic shock, high dose model (1000 μg LPS), lethality", "assay_type": "in vivo", "conditions": "for Mortality, percent dead: Table 3, High Dose Model (1000 μg LPS), 1000 μM pre, 500 μM SC post every 12; for Mortality caused by septic shock: intraperitoneal administration prior to LPS challenge coupled with subcutaneous administration following LPS challenge (Table 3)", "method": "as §1\nIn another experiment, 1 mg of LPS was administered intraperitoneally. Piceatannol or tetramethoxy-piceatannol (TMP) were administered intraperitoneally prior to LPS treatment, with some mice receiving subcutaneous doses of either piceatannol or TMP following LPS administration."}},
  "note": "Entries after “also recorded” stand apart in the source; their conditions may differ. Where two headings read alike, the source gives them in different places.",
  "data": [
    {"compound": "Oc1ccc(/C=C/c2cc(O)cc(O)c2)cc1", "note": "[resveratrol, trihydroxy-stilbene]", "values": [
      {"measurement": "Water solubility", "setting": "[1]", "value": "water soluble"}
    ]},
    {"compound": "Oc1cc(O)cc(/C=C/c2ccc(O)c(O)c2)c1", "note": "[Piceatannol, 3,3′,4,5′-tetrahydroxy-trans-stilbene]", "values": [
      {"measurement": "Inhibition of tyrosine kinase Tyk2", "setting": "tyrosine kinase Tyk2", "value": "potent inhibitor"},
      {"measurement": "Inhibition of tyrosine kinase Syk", "setting": "tyrosine kinase Syk", "value": "inhibitor"},
      {"measurement": "Inhibition of tyrosine kinase ZAP70", "setting": "tyrosine kinase ZAP70", "value": "inhibitor"},
      {"measurement": "Production of IL-6 in response to LPS", "setting": "IL-6", "value": "inhibited"},
      {"measurement": "Eosinophils infiltration into the lungs", "setting": "Ovalbumin immunized mice", "value": "significant reduction"},
      {"measurement": "Lymphocytes infiltration into the lungs", "setting": "Ovalbumin immunized mice", "value": "significant reduction"},
      {"measurement": "Water solubility", "setting": "[1]", "value": "partially water soluble"},
      {"measurement": "Water solubility", "setting": "[1]; listed as piceatannol", "value": "water soluble"},
      {"measurement": "Lethality rate", "setting": "[2]; Table 1, piceatannol 1000 μg intraperitoneal, dead/total, 28 days of observation", "value": "0/8"},
      {"measurement": "Lethality rate", "setting": "[2]; Table 2, piceatannol 1000 μg (ip)", "value": "0/6"},
      {"measurement": "Lethality rate", "setting": "[2]; Table 2, piceatannol 1000 μg (iv)", "value": "0/2"},
      {"measurement": "Toxicity in vivo (overall statement)", "setting": "[2]; data of Tables 1 and 2 / Examples 1 and 3", "value": "very low toxicity; also recorded: low toxicity"},
      {"measurement": "Acute or chronic toxicity", "setting": "[2]; healthy animals, repeated high dose (1 mg) intraperitoneal injections", "value": "did not detect any acute or chronic toxicity"},
      {"measurement": "Acute toxicity (within 2 hours post-injection)", "setting": "[2]; piceatannol alone, up to 1 mg intraperitoneal or intravenously", "value": "no signs of acute (i.e., within 2 hours post-injection) toxicity"},
      {"measurement": "Delayed toxicity", "setting": "[2]; with or without subsequent LPS injection, monitored for several weeks", "value": "no signs of delayed toxicity"},
      {"measurement": "Time to complete paralysis and death after administration was stopped", "setting": "[3]; after 30 days of 1 mg s.c. every 48 hours", "value": "Ten"},
      {"measurement": "Disease progression", "setting": "[3]; for the duration of administration, 1 mg s.c. every 48 hours", "value": "completely halted disease progression"},
      {"measurement": "Survival under treatment", "setting": "[3]; three mice with hind leg paralysis, 1 mg s.c. every 48 hours, administration stopped at that time", "value": 30, "unit": "days"},
      {"measurement": "Production of TNFα in response to LPS", "setting": "TNFα", "value": "inhibited"},
      {"measurement": "Concentration that blocks LPS induced gene expression (e.g., RANTES, MCP-1, TNF)", "setting": "[4]", "value": "micromolar range"},
      {"measurement": "Concentration that blocks LPS induced gene expression (e.g., RANTES, MCP-1, ISG54)", "setting": "[4]; in vitro", "value": "micromolar concentrations; also recorded: micromolar range"},
      {"measurement": "Lethality rate", "setting": "[5]; Table 1, LPS 1 μg (+D-Gal) ip, piceatannol 250 μg ip, 28 days of observation", "value": "5/12"},
      {"measurement": "Lethality rate", "setting": "[5]; Table 1, LPS 1 μg (+D-Gal) ip, piceatannol 500 μg ip, 28 days of observation", "value": "0/8"},
      {"measurement": "Lethality rate", "setting": "[5]; Table 2, LPS + D-Gal 1 μg ip, piceatannol 250 μg (ip)", "value": "3/8"},
      {"measurement": "Lethality rate", "setting": "[5]; Table 2, LPS + D-Gal 1 μg ip, piceatannol 250 μg (iv) + 250 μg (ip)", "value": "0/6"},
      {"measurement": "Lethality rate", "setting": "[5]; Table 2, LPS + D-Gal 1 μg ip, piceatannol 400 μg (ip)", "value": "0/2"},
      {"measurement": "Mortality, percent dead", "setting": "[5]; 400 μM ip prior to LPS", "value": 48, "unit": "%"},
      {"measurement": "Mortality, percent dead", "setting": "[5]; 1000 μM ip prior to LPS", "value": 35, "unit": "%"},
      {"measurement": "Animals rescued", "setting": "[5]; administration several hours after LPS challenge, animal model of sepsis", "value": "approximately 50%"},
      {"measurement": "Protection against endotoxic shock", "setting": "[5]; combined intravenous and intraperitoneal administration", "value": "up to 100%"},
      {"measurement": "Mortality caused by septic shock", "setting": "[5]", "value": "significantly reducing mortality"},
      {"measurement": "Death associated with endotoxic shock", "setting": "[5]; single administration by either the intravenous or intraperitoneal route", "value": "significantly reduced death"},
      {"measurement": "Protection against endotoxic shock", "setting": "[5]; single administration, animal model of sepsis", "value": "up to 100%"},
      {"measurement": "Lethality rate", "setting": "[6]; Table 1, LPS 1000 μg ip, piceatannol 500 → 1000 μg ip, 28 days of observation", "value": "3/8"},
      {"measurement": "Mortality, percent dead", "setting": "[6]", "value": 50, "unit": "%"},
      {"measurement": "Mortality caused by septic shock", "setting": "[6]", "value": "significantly reduced mortality"}
    ]},
    {"compound": "COc1cc(/C=C/c2ccc(OC)c(OC)c2)cc(OC)c1", "note": "[TMP, tetramethoxy-piceatannol]", "values": [
      {"measurement": "Inhibition of LPS-mediated ISG induction, compared with piceatannol", "setting": "[4]; in vitro", "value": "as effective as piceatannol"},
      {"measurement": "Mortality, percent dead", "setting": "[5]; 1000-1250 μM ip prior to LPS", "value": 38, "unit": "%"},
      {"measurement": "Mortality caused by septic shock", "setting": "[5]", "value": "significantly reducing mortality"},
      {"measurement": "Mortality, percent dead", "setting": "[6]", "value": 44, "unit": "%"},
      {"measurement": "Mortality caused by septic shock", "setting": "[6]", "value": "significantly reduced mortality"}
    ]}
  ]
}
